Consider one compound from patent US20080289052A1, “Method of Constructing Animal Having Cancer Cells Transplanted Thereinto” (priority 2004, published 2008).

SMILES strings stand for the structures.

In the experiment the test system is cancer cells A-549. Nature of the experiment: Anti-tumor agent test in nude mice transplanted subcutaneously with an A-549 cancer cells sheet. It counts as in vivo. The procedure: A cell culture base was coated with the temperature-responsive polymer poly(N-isopropylacrylamide) in an amount of 1.9 μg/cm^2 and the cancer cells A-549 was cultivated (2×10^4 cells were seeded; 37° C. in 5% CO2). Three days later, the cancer cells (A-549) on the culture base were confirmed to have become confluent; thereafter, a poly(vinylidene difluoride) [PVDF] membrane not coated with a fibrin gel was gently placed over the cultured cell sheet so that the cultured cancer cells adhered to it; then, the cell culture base was cooled at 20° C. for 60 minutes. After the cooling, a sheet of cancer cells (7 mm×17 mm×2 mm; 5×10^5 cells) was detached together with PVDF membrane. The back of each of 10 nude mice was incised linearly beneath the skin and the subcutaneous tissue was detached with forceps to create a pocket, into which the above-described cancer cells sheet was inserted. After the inserting, the incised part was sutured to complete the transplantation. The dimensions of the tumor that developed after the transplantation were measured over the skin with a micrometer and the volume of the tumor was calculated assuming that it was an ellipsoid. The volume of the tumor was also calculated, this time on the assumption that it was a cylindroid (volume of cylindroid=n/4×major axis of the tumor×minor axis of the tumor×thickness of the tumor). Four weeks after the transplantation, the mean volume of ellipsoid was 578.7+322.8 mm^3, the mean volume of cylindroid was 1258.7+897.9 mm^3, and the mean tumor weight was 785.4±394 mg. The decrease in the tumor volume that occurred immediately after the transplantation as shown in FIG. 1 (tumor assumed as an ellipsoid) and FIG. 2 (as a cylindroid) was absent and the tumor grew bigger as more days elapsed after the transplantation.
The cancer cells transplanted animals prepared in Example 2 were administered a total of four times on a once-a-week basis with 3 mg of 5-fluorouracil (5-FU), a known anti-tumor agent, through the tail vein as it was dissolved in 0.3 ml of 1% ethyl alcohol containing physiological saline. Four weeks after the administration, the mean volume of ellipsoid was 279.6±127.1 mm^3, the mean volume of cylindroid was 619.3±262.9 mm^3, and the mean tumor weight was 369.3±123 mg. As it turned out, the cancer cells transplanted animals described in the present invention got the volume and weight of the tumor to be reduced by receiving the anti-tumor agent. Obviously, the cancer cells transplanted animals of the present invention are useful in selecting an effective anti-tumor agent.

Setting [1] is: A-549 cell sheet transplanted nude mice of Example 2, 3 mg through the tail vein once a week, four times, four weeks after the administration.

In the case of `O=c1[nH]cc(F)c(=O)[nH]1` [5-fluorouracil], under setting [1], the mean tumor weight is 369.3 ± 123 mg, the “mean volume of cylindroid (tumor volume)” value was 619.3±262.9 mm^3 and the “mean volume of ellipsoid (tumor volume)” value is 279.6±127.1 mm^3. In addition, the “volume and weight of the tumor (effect of receiving the anti-tumor agent)” value (A-549 cell sheet transplanted nude mice, compared with untreated animals of Example 2) is “reduced”.
